Data on 66 compounds can be found in patent publication US8653087B2, “Pyrido [5, 4-D] pyrimidines as cell proliferation inhibitors” (Boehringer Ingelheim International GmbH, priority 2008, dated 2014).

In this test the target is B-Raf (V600E)-kinase (Homo sapiens (Human), UniProt P15056, V600E). Nature of the test: Kinase test B-RAF (V600E). The conditions noted are these: B-RAF (V600E) kinase test, 250 μM ATP. It is filed as biochemical. In short, it runs like this: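 B-Raf (V600E) (0.5 ng) preincubated with compound 24 h at RT (5% DMSO), then reacted 60 min at RT with 250 μM ATP and biotinylated MEK1 as substrate. Phospho-MEK (Ser217/221) captured on streptavidin and detected by europium time-resolved fluorescence; IC50 from dose-response curves.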
Chain of B-Raf (V600E)-kinase (P15056 whole entry V600E): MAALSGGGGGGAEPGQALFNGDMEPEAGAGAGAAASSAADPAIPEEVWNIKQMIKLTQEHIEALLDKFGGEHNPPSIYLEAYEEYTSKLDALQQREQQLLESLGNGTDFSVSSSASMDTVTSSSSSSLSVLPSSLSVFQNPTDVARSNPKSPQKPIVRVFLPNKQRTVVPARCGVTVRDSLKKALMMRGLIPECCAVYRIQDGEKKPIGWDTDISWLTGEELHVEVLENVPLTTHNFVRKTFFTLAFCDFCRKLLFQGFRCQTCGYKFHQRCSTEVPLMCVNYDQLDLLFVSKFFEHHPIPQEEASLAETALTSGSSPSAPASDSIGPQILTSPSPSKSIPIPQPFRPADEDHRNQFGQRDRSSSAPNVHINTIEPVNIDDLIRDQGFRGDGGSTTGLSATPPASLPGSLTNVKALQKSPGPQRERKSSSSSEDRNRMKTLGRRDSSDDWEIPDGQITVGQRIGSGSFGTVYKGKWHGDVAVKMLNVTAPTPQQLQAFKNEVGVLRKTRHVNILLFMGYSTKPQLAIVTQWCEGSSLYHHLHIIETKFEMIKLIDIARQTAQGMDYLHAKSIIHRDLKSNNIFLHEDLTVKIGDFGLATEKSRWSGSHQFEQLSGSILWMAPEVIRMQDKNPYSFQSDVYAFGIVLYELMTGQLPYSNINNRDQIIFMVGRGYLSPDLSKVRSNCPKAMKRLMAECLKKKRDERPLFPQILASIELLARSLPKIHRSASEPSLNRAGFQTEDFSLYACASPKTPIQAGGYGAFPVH

Bounds are passed on as bounds.

Usually IC50 stands for the concentration at which inhibition is half-maximal. Consider `CC(C)(C)c1cc(NC(=O)c2ccc(Cl)c(Nc3ncnc4cnc(NCCCN5CCOCC5)nc34)c2)no1` [III-74], for which the IC50 was 1 nM.

The compound `Cc1ccc(C(=O)Nc2cc(N3CCCN(C)CC3)cc(C(F)(F)F)c2)cc1Nc1ncnc2cnc(N3CC[C@H](F)C3)nc12` [III-458] yielded an IC50 of 1 nM.

Regarding `COc1ccc(C(F)(F)F)cc1NC(=O)c1ccc(C)c(Nc2ncnc3cnc(N4CCN(C)CC4)nc23)c1` [III-299], it took 5 nM to reach half-maximal inhibition (IC50).

Compound `Cc1ccc(C(=O)Nc2cccc(C(C)(C)C#N)c2)cc1Nc1ncnc2cnc(N3CCN(C)CC3)nc12` [III-305] came in with a 50% inhibitory concentration (IC50) of 2 nM.

`Cc1ccc(C(=O)Nc2ccccc2)cc1Nc1ncnc2cnc(N3CCCC3)nc12` [III-259] returned an IC50 of 505 nM.

Compound `Cc1ccc(C(=O)Nc2cc(C(C)(C)C)on2)cc1Nc1ncnc2c(N)nc(N3CCN(C4CCN(C)CC4)CC3)nc12` [I-10] displayed an IC50 of 1 nM.

In the case of `Cc1ccc(C(=O)Nc2ccc(N(C)CCN(C)C)c(C(F)(F)F)c2)cc1Nc1ncnc2cnc(N3CCOCC3)nc12` [III-130], the IC50 stood at 3 nM.

The compound `Cc1ccc(C(=O)Nc2cc(OCCN(C)C)cc(C(F)(F)F)c2)cc1Nc1ncnc2cnc(NCc3ccccc3)nc12` [III-147] registered an IC50 of 1 nM.

As to `CN1CCC(N2CCN(c3nc(N)c4ncnc(Nc5cc(C(=O)Nc6cccc(C(F)(F)F)c6)ccc5Cl)c4n3)CC2)CC1` [I-25], the IC50 was determined as 3 nM.

Consider `COCCN(C)c1ncc2ncnc(Nc3cc(C(=O)Nc4ccc(OC)c(C(F)(F)F)c4)ccc3C(F)(F)F)c2n1` [III-42], for which the IC50 turned out to be 64 nM.

As to `Cc1ccc(C(=O)Nc2nnc(C(F)(F)F)s2)cc1Nc1ncnc2cnc(N(C)CCN(C)C)nc12` [III-280], the IC50 worked out at 10000 nM.

`CCCS(=O)(=O)Nc1ccc(C)c(Nc2ncnc3cnc(N4CCN(C)CC4)nc23)c1` [IV-65] displayed an IC50 of 2000 nM.

Turning to `COc1c(NC(=O)c2ccc(C)c(Nc3ncnc4cnc(N5CCOCC5)nc34)c2)cc(C(C)(C)C)cc1NS(C)(=O)=O` [III-323], the IC50 stood at 11 nM.

In turn, `Cc1ccc(C(=O)NCc2cccc(C(C)(C)C)c2)cc1Nc1ncnc2cnc(N3CCOCC3)nc12` [III-327] registered an IC50 of 56 nM.

As to `COc1ccc(NC(=O)c2ccc(F)c(Nc3ncnc4cnc(N5CCN(C)CC5)nc34)c2)cc1C(F)(F)F` [III-34], the IC50 came out at 2 nM.

In the case of `CN1CCCN(c2nc(N)c3ncnc(Nc4cccc(C(=O)Nc5cccc(C(F)(F)F)c5)c4)c3n2)CC1` [I-20], the IC50 is 50 nM.

In turn, `COc1c(NC(=O)c2ccc(C)c(Nc3ncnc4cnc(N5CCCCC5)nc34)c2)cc(C(C)(C)C)cc1NS(C)(=O)=O` [III-338] yielded an IC50 of 41 nM.

`Cc1ccc(C(=O)Nc2cccc(C(F)(F)F)c2)cc1Nc1ncnc2c(N)nc(N3CCNCC3)nc12` [I-66] registered an IC50 below 1 nM.

Compound `Cc1ccc(C(=O)Nc2cc(OCCN(C)C)cc(C(F)(F)F)c2)cc1Nc1ncnc2cnc(N(C)C)nc12` [III-155] returned an IC50 of 2 nM.

Compound `Cc1ccc(C(=O)Nc2cc(C(C)(C)C)on2)cc1Nc1ncnc2cnc(N(C)C3CCOC3)nc12` (stereo not drawn) [III-365] had an IC50 of 1 nM.

`Cc1ccc(C(=O)Nc2cccc(C(F)(F)F)c2)cc1Nc1ncnc2cnc(N3CCCN(C)CC3)nc12` [III-217] displayed an IC50 of 2 nM.

On to `COc1ccc(NC(=O)c2ccc(C(F)(F)F)c(Nc3ncnc4cnc(N5CCN(C)CC5)nc34)c2)cc1C(F)(F)F` [III-47], for which the IC50 came out at 95 nM.

`COc1ncc2ncnc(Nc3cc(C(=O)Nc4cc(N(C)CCN(C)C)cc(C(F)(F)F)c4)ccc3C)c2n1` [III-571]: the IC50 is 2 nM.

`Cc1ccc(C(=O)Nc2cc(Br)cc(C(F)(F)F)c2)cc1Nc1ncnc2c(N)nc(N3CCN(C)CC3)nc12` [I-2] came in with a concentration for half-maximal inhibition (IC50) of 9 nM.

Turning to `CC(C)(C)c1cc(NC(=O)c2ccc(F)c(Nc3ncnc4cnc(NC5CCOC5)nc34)c2)no1` (stereo not drawn) [III-381], the IC50 was 3 nM.

Turning to `Cc1ccc(C(=O)Nc2cc(C(C)(C)C)nn2C)cc1Oc1ncnc2cnc(N3CCOCC3)nc12` [III-591], the IC50 worked out at 1 nM.

For the compound `CCN1CCN(c2cc(C(=O)Nc3ccc(C)c(Nc4ncnc5cnc(N6CCOCC6)nc45)c3)cc(C(C)(C)C#N)c2)CC1` [IV-67], it took 2 nM to reach half-maximal inhibition (IC50).

On to `CC(C)(C)c1cc(NC(=O)c2ccc(F)c(Nc3ncnc4cnc(N5CCCCCC5)nc34)c2)no1` [III-85], for which the IC50 was 7 nM.

In turn, `CCN1CCN(c2cc(NC(=O)c3ccc(C)c(Nc4ncnc5c(N)nc(N6CCCC6)nc45)c3)cc(C(F)(F)F)c2)CC1` [I-87] yielded a half-inhibitory concentration (IC50) of 9 nM.

`Cc1ccc(NC(=O)c2cccc(C(C)(C)C#N)c2)cc1Nc1ncnc2cnc(N3CCOCC3)nc12` [IV-2]: the IC50 was below 1 nM.

As for `Cc1ccc(C(=O)Nc2ccnc(C(C)(C)C)c2)cc1Nc1ncnc2cnc(N3CCC(CN4CCCC4)CC3)nc12` [III-604], the IC50 stood at 3 nM.

For `CC(C)(C)c1cc(NC(=O)c2ccc(F)c(Nc3ncnc4cnc(N5CCOCC5)nc34)c2)[nH]n1` [III-391], the IC50 amounted to 1 nM.

For `Cc1ccc(C(=O)Nc2nnc(C(F)(F)F)s2)cc1Nc1ncnc2cnc(N3CCN(C)CC3)nc12` [III-296], the IC50 came to 198 nM.

The compound `Cc1ccc(C(=O)Nc2cc(N(C)CCN(C)C)cc(C(F)(F)F)c2)cc1Nc1ncnc2cnc(NCc3ccccn3)nc12` [III-172] came in with an IC50 of 2 nM.

`Cc1ccc(C(=O)Nc2cccc(N(C)C)c2)cc1Nc1ncnc2cnc(N3CCCC3)nc12` [III-271] returned an IC50 of 10 nM.

Take `COc1ncc2ncnc(Nc3cc(C(=O)Nc4cc(CN5CCCC5)cc(C(F)(F)F)c4)ccc3C)c2n1` [III-572]: the IC50 is 1 nM.

On to `CN1CCN(c2ncc3ncnc(Nc4cc(C(=O)Nc5cc(C(C)(C)C)on5)ccc4C(F)(F)F)c3n2)CC1` [III-60], for which the IC50 is 230 nM.

In turn, `Cc1ccc(C(=O)Nc2cc(N(C)CCN(C)C)cc(C(F)(F)F)c2)cc1Nc1ncnc2c(N)nc(N(C)C)nc12` [I-78] returned an IC50 of 8 nM.

For `CCN(CC)c1ncc2ncnc(Nc3cc(C(=O)Nc4cc(CN5CCCC5)cc(C(F)(F)F)c4)ccc3C)c2n1` [III-117], half-maximal inhibition (IC50) was put at 2 nM.

Take `COc1ccc(NC(=O)c2ccc(Cl)c(Nc3ncnc4cnc(NCCCN5CCOCC5)nc34)c2)cc1C(F)(F)F` [III-11]: the half-maximal inhibitory concentration (IC50) is 4 nM.

`CC(C)(C)c1cc(NC(=O)c2ccc(F)c(Nc3ncnc4cnc(N5CCCCC5)nc34)c2)no1` [III-88] came in with an IC50 of 5 nM.

Consider `Cc1ccc(NC(=O)c2cccc(C(F)(F)F)c2)cc1Nc1ncnc2c(N)nc(N3CC4CC3CN4C)nc12` (stereo not drawn) [II-18], for which it took 9 nM to reach half-maximal inhibition (IC50).

For `COCCN(C)c1ncc2ncnc(Nc3cc(C(=O)Nc4cc(C(C)(C)C)nn4C)ccc3C)c2n1` [III-465], the IC50 is 2 nM.

`Cc1ccc(C(=O)Nc2cc(C(C)(C)C)on2)cc1Nc1ncnc2cnc(NCc3ccccc3)nc12` [III-521] yielded an IC50 of 2 nM.

On to `Cc1ccc(C(=O)Nc2cccc(C(F)(F)F)c2)cc1Nc1ncnc2c(N)nc(N3CCCN(c4ccccn4)CC3)nc12` [I-67], for which the IC50 was determined as 3 nM.

With `COCCN(C)c1ncc2ncnc(Nc3cc(C(=O)Nc4cc(C(C)(C)C)on4)ccc3Cl)c2n1` [III-67], inhibition was half-maximal at 5 nM (IC50).

`Cc1ccc(C(=O)NC2CC2)cc1Nc1ncnc2cnc(N3CCCN(C)CC3)nc12` [III-185]: the half-inhibitory concentration (IC50) is above 15000 nM.

`CCN1CCN(c2ncc3ncnc(Nc4cc(C(=O)Nc5ccc(OC)c(C(F)(F)F)c5)ccc4C)c3n2)CC1` [III-561]: the IC50 came to 9 nM.

With `Cc1ccc(C(=O)Nc2cc(C(F)(F)F)ccn2)cc1Nc1ncnc2cnc(NC3CCOC3)nc12` (stereo not drawn) [III-355], the IC50 is below 1 nM.

As for `COc1ccc(NC(=O)c2ccc(F)c(Nc3ncnc4cnc(NCCCN5CCOCC5)nc34)c2)cc1C(F)(F)F` [III-36], half-maximal inhibition (IC50) required 3 nM.

`O=C(Nc1cc(C(F)(F)F)ccn1)c1ccc(F)c(Nc2ncnc3cnc(N4CCOCC4)nc23)c1` [III-393] gave an IC50 of 1 nM.

In the case of `Cc1ccc(C(=O)Nc2ccc(C#N)c(C(F)(F)F)c2)cc1Nc1ncnc2cnc(N3CCOCC3)nc12` [III-340], the 50% inhibitory concentration (IC50) came to 4 nM.

`Cc1ccc(C(=O)Nc2cc(C(C)(C)C)n[nH]2)cc1Nc1ncnc2c(N)nc(N3C[C@H]4C[C@@H]3CN4C)nc12` [I-36] came in with an IC50 of 4 nM.

On to `Cc1ccc(C(=O)Nc2cc(CN3CCCC3)cc(C(F)(F)F)c2)cc1Nc1ncnc2cnc(N3CCC3)nc12` [III-100], for which 4 nM corresponded to half-maximal inhibition (IC50).

The compound `COc1ccc(NC(=O)c2ccc(C)c(Nc3ncnc4cnc(NCC5CCCCO5)nc34)c2)cc1C(F)(F)F` (stereo not drawn) [III-544] gave an IC50 of 1 nM.

Consider `COc1ccc(NC(=O)c2ccc(C)c(Nc3ncnc4cnc(N5CCC(N6CCCC6)CC5)nc34)c2)cc1C(F)(F)F` [III-560], for which the midpoint of inhibition, the IC50, lay at 7 nM.

Compound `Cc1ccc(C(=O)NCc2cccc(C(C)(C)C)c2)cc1Nc1ncnc2cnc(N3CCCC3)nc12` [III-278] showed a concentration for half-maximal inhibition (IC50) of 88 nM.

For the compound `Cc1ccc(NC(=O)c2cccc(C(F)(F)F)c2)cc1Nc1ncnc2c(N)nc(NCc3ccncc3)nc12` [II-4], the IC50 worked out at 81 nM.

As to `COc1ccc(NC(=O)c2ccc(Cl)c(Nc3ncnc4cnc(N(C)CCN(C)C)nc34)c2)cc1C(F)(F)F` [III-5], it took 2 nM to reach half-maximal inhibition (IC50).

As for `Cc1ccc(NC(=O)c2cccc(C(C)(C)C#N)c2)cc1Nc1ncnc2cnc(N3CC[C@@H](F)C3)nc12` [IV-34], inhibition was half-maximal at 2 nM (IC50).

On to `Cc1ccc(C(=O)Nc2cccc(C(F)(F)F)c2)cc1Nc1ncnc2cnc(N3CCNCC3)nc12` [III-339], for which the IC50 turned out to be 1 nM.

`Cc1ccc(C(=O)Nc2nnc(C(F)(F)F)s2)cc1Nc1ncnc2cnc(N3CC[C@H](F)C3)nc12` [III-285]: the IC50 was 274 nM.

`Cc1ccc(C(=O)Nc2ccc(C(F)(F)F)cc2)cc1Nc1ncnc2c(N)nc(NCCN(C)C)nc12` [I-6] returned an IC50 of 68 nM.

The compound `Cc1ccc(C(=O)NC2CCCCC2)cc1Nc1ncnc2cnc(N3CCN(C)CC3)nc12` [III-189] showed an IC50 above 15000 nM.

Take `COc1c(CN2CCCC2)cc(C(F)(F)F)cc1NC(=O)c1ccc(C)c(Nc2ncnc3cnc(N4CC[C@H](F)C4)nc23)c1` [III-541]: the IC50 was determined as 15 nM.

`COCCN1CCN(c2ncc3ncnc(Nc4cc(C(=O)Nc5ccc6c(c5)OC(F)(F)OC6(F)F)ccc4C)c3n2)CC1` [III-608] registered an IC50 of 7 nM.
